Measurements taken from patent publication US20050124690A1, “Pharmaceutical composition for the treatment of seborrhea containing 4-hydroxy-5-methoxy-4-[2-methyl-3(3-methyl-2-butenyl)-2-oxiranyl]-1-oxaspiro[2,5]octan-6-one” (priority 2002, published 2005).

What was measured:
[1] = tested on: Pityrosporum ovale; assay: Minimum inhibition concentration (MIC) on Sabouraud's dextrose solid medium; assay type: cell-based; settings: Malassezia furfur; solid medium with 1% corn oil and 0.1% Tween-80; 30° C., 3 to 5 days; naked eye
Method: For use in this test, P. ovale was cultured in Sabouraud's dextrose solid medium containing 1% corn oil and 0.1% Tween-80 at 30° C. for 2 days. After Sabouraud's dextrose solid medium containing 1% corn oil and 0.1% Tween-80 was aliquotted onto 6 cm plane plates, 4-hydroxy-5-methoxy-4-[2-methyl-3-(3-methyl-2-butenyl)-2-oxiranyl]-1-oxaspiro[2,5]octan-6-one was added in various concentration. When the medium was hardened, 150 μl of the cultured P. ovale was smeared onto the medium, followed by incubation at 30° C. for 3 to 5 days. Observing with naked eye, a minimum concentration capable of inhibiting the growth of the fungus was determined as MIC (Minimum Inhibition Concentration).
MIC versus P. ovale of 4-hydroxy-5-methoxy-4-[2-methyl-3-(3-methyl-2-butenyl)-2-oxiranyl]-1-oxaspiro[2,5]octan-6-one is given in Table 1, below.

[2] = tested on: four-week old female rats; assay: Acute dermal toxicity test; assay type: in vivo; settings: 4000 mg/kg applied to about 10% of body surface area of shaved rats; observation for 15 days
Method: 4-hydroxy-5-methoxy-4-[2-methyl-3-(3-methyl-2-butenyl)-2-oxiranyl]-1-oxaspiro[2,5]octan-6-one, which was isolated from the culture filtrate and then purified, was tested for acute dermal toxicity using four-week old female rats, according to the standards provided by the Korean Food & Drug Administration. After the rats were shaved, 4000 mg/kg (body weight) of the compound was uniformly applied to about 10% of body surface area of rats.

[3] = tested on: Pityrosporum ovale; assay: Paper disc diffusion test for antifungal activity; assay type: cell-based; settings: 45 μl of 0.1% acetone solution on paper disc; 30° C., 3 days
Method: A paper disc diffusion method was used to investigate antifungal activity against a fungus, Pityrosporum ovale. Sabouraud's dextrose solid medium containing 1% of corn oil and 0.1% Tween-80 was aliquotted onto 87 mm plane plates, and allowed to harden. In order to examine antifungal activity against P. ovale, […] of P. ovale cultured in Sabouraud's dextrose solid medium at 30° C. for 2 days was smeared onto the plates, and then dried. 45 μl of an acetone solution containing 0.1% of 4-hydroxy-5-methoxy-4-[2-methyl-3-(3-methyl-2-butenyl)-2-oxiranyl]-1-oxaspiro[2,5]octan-6-one was aliquated onto paper discs, and, after completely evaporating off the acetone, put onto the P. ovale-smeared medium. Plates not treated with 4-hydroxy-5-methoxy-4-[2-methyl-3-(3-methyl-2-butenyl)-2-oxiranyl]-1-oxaspiro[2,5]octan-6-one were used as controls. Thereafter, incubation was carried out at 30° C. for 3 days, and it was observed whether a growth inhibition area formed around the discs or not.

COC1C(=O)CCC2(CO2)C1(O)C1(C)OC1CC=C(C)C (stereo not drawn) [4-hydroxy-5-methoxy-4-[2-methyl-3-(3-methyl-2-butenyl)-2-oxiranyl]-1-oxaspiro[2,5]octan-6-one]
MIC [1]: < 2 µg/mL | irritation, such as erythema or crusting [2]: not detected irritation | antifungal activity against P. ovale (growth inhibition area around the discs) [3]: found to have antifungal activity
